Patent US20260363243A1 (priority 2022, published 2026)
Like-named read-outs stand apart in the source and are kept apart here.

Columns and labels:
Phytophthora capsici = assay: In vitro inhibition of hypha growth of oomycete pathogens (microplate, OD595): Phytophthora capsici; assay type: cell-based; conditions: for inhibitory activity compared with OXA: 5, 0.5 and 0.05 mg/L, in words; for inhibition at 0.005 µg/mL / inhibition at 0.05 µg/mL / inhibition at 0.5 µg/mL / inhibition at 5 µg/mL: read-out: inhibitory activity on hypha growth
Phytophthora sojae = assay: In vitro inhibition of hypha growth of oomycete pathogens (microplate, OD595): Phytophthora sojae; assay type: cell-based; conditions: for inhibitory activity compared with OXA: 5, 0.5 and 0.05 mg/L, in words; for inhibition at 0.005 µg/mL / inhibition at 0.05 µg/mL / inhibition at 0.5 µg/mL / inhibition at 5 µg/mL: read-out: inhibitory activity on hypha growth
Phytophthora infestans = assay: microbe, parasite or virus in culture; assay type: cell-based; conditions: for inhibitory activity compared with OXA: 5, 0.5 and 0.05 mg/L, in words; for inhibition at 0.005 µg/mL / inhibition at 0.05 µg/mL / inhibition at 0.5 µg/mL / inhibition at 5 µg/mL: read-out: inhibitory activity on hypha growth
Phytophthora nicotianae = assay: In vitro inhibition of hypha growth of oomycete pathogens (microplate, OD595): Phytophthora nicotianae; assay type: cell-based; conditions: for inhibition at 0.005 µg/mL / inhibition at 0.05 µg/mL / inhibition at 0.5 µg/mL / inhibition at 5 µg/mL: Phytophthora nicotianae, read-out: inhibitory activity on hypha growth; for inhibitory activity compared with OXA: Pythium nicotianae, 5, 0.5 and 0.05 mg/L, in words
[1] = tested on: Cucumber downy mildew (Pseudoperonospora cubensis); assay: Field efficacy test for controlling cucumber downy mildew
Protocol: The test was carried out according to the Guidelines for the Field Efficacy Trials of Pesticides (Part 1): Fungicides Against Downy Mildew of Cucumber (GB/T17980.26-2000). The test site was a mature vegetable base of Hushu in Nanjing, Jiangsu Province. Cucumber downy mildew (Pseudoperonospora cubensis) was used as the target, oxathiapiprolin and Yin Fali were used as control agents. The test crops was cucumber and the variety was ‘Green Core’. The plots were arranged in a randomized block design, with each plot approximately 8 m^2 and each treatment replicated three times. The whole stem and leaf spray was employed, the test was carried out at the early stage of cucumber downy mildew occurrence, and the agents were applied twice consecutively, with the second application 5 days after the first one. The investigation method was to take one investigation point for every row of cucumbers in each treatment district, assess the severity of downy mildew of all leaves of all cucumber plants, and calculate the disease index and the prevention effect.

cucumber downy mildew [2] = assay: Activity in vivo for inhibiting cucumber downy mildew (potting method, greenhouse); conditions: for efficacy compared with OXA / efficacy compared with dimethomorph and cyazofamid / efficacy compared with oxathiapiprolin / bactericidal activity: in words
Description: The test and investigation method refers to a SOP-SC-1098 cucumber downy mildew potting method in the fungicide section of Standard operation Specification for testing biological Activity of pesticides written by Kang Zhuo and Gu Baogen.

cucumber downy mildew [3] = conditions: Table 3, data from Li, J. L. et al. 2020, cited from earlier work
[4] = after the first pesticide application, 50 mg/L
[5] = after the second pesticide application, 50 mg/L
[6] = 0.005 mg/L, re-screening, Table 2
[7] = 0.02 mg/L, re-screening, Table 2
[8] = 0.078 mg/L, re-screening, Table 2
[9] = 0.312 mg/L, re-screening, Table 2
[10] = 1.25 mg/L, re-screening, Table 2

CCOC(CC(=O)N1CCC(c2nc(C3=NOC(c4c(F)cccc4F)C3)cs2)CC1)OC (centres unmarked) [II-3]
inhibitory activity compared with OXA (Phytophthora capsici): comparable to that of the control agent OXA
inhibition at 0.005 µg/mL (Phytophthora capsici): 90 to 100%
inhibition at 0.05 µg/mL (Phytophthora capsici): 90 to 100%
inhibition at 0.5 µg/mL (Phytophthora capsici): 90 to 100%
inhibition at 5 µg/mL (Phytophthora capsici): 90 to 100%
inhibitory activity compared with OXA (Phytophthora sojae): comparable to that of the control agent OXA
inhibition at 0.005 µg/mL (Phytophthora sojae): 75 to 90%
inhibition at 0.05 µg/mL (Phytophthora sojae): 90 to 100%
inhibition at 0.5 µg/mL (Phytophthora sojae): 90 to 100%
inhibition at 5 µg/mL (Phytophthora sojae): 90 to 100%
inhibitory activity compared with OXA (Phytophthora infestans): comparable to that of the control agent OXA
inhibition at 0.005 µg/mL (Phytophthora infestans): 75 to 90%
inhibition at 0.05 µg/mL (Phytophthora infestans): 90 to 100%
inhibition at 0.5 µg/mL (Phytophthora infestans): 90 to 100%
inhibition at 5 µg/mL (Phytophthora infestans): 90 to 100%
inhibition at 0.005 µg/mL (Phytophthora nicotianae): 90 to 100%
inhibition at 0.05 µg/mL (Phytophthora nicotianae): 90 to 100%
inhibition at 0.5 µg/mL (Phytophthora nicotianae): 90 to 100%
inhibition at 5 µg/mL (Phytophthora nicotianae): 90 to 100%
inhibitory activity compared with OXA (Phytophthora nicotianae): comparable to that of the control agent OXA
control effect compared with OXA and Yinfali ([1]; 50 mg/L, in words): better than that of the control agents OXA and Yinfali
Average control effect [1, 4]: 66.63%
Average disease index [1, 4]: 2.80
Average control effect [1, 5]: 79.72%
Average disease index [1, 5]: 6.93
effect in controlling cucumber downy mildew in the field ([1]; in words): good effect in controlling cucumber downy mildew, it can effectively protect new leaves and can effectively inhibit the spread of disease spots on the infected leaves
efficacy compared with OXA (cucumber downy mildew [2]; 0.005 mg/L): comparable to that of the control agent OXA
Control effect (cucumber downy mildew [2]; [6]): A (90%≤A≤100%)
Control effect (cucumber downy mildew [2]; [7]): A (90%≤A≤100%)
efficacy compared with dimethomorph and cyazofamid (cucumber downy mildew [2]; 0.078 mg/L): superior to that of dimethomorph and cyazofamid
efficacy compared with oxathiapiprolin (cucumber downy mildew [2]; 0.078 mg/L): equivalent to that of oxathiapiprolin at the same concentration
Control effect (cucumber downy mildew [2]; 0.078 mg/L, re-screening): ≥ 90%
Control effect (cucumber downy mildew [2]; [8]): A (90%≤A≤100%)
Control effect (cucumber downy mildew [2]; [9]): A (90%≤A≤100%)
Control effect (cucumber downy mildew [2]; 0.625 mg/L, Table 3): A (90% ≤ A ≤ 100%)
Control effect (cucumber downy mildew [2]; 1.25 mg/L, Table 1): A (90%≤A≤100%)
Control effect (cucumber downy mildew [2]; [10]): A (90%≤A≤100%)
Control effect (cucumber downy mildew [2]; 2.5 mg/L, Table 3): A (90% ≤ A ≤ 100%)
Control effect (cucumber downy mildew [2]; 5 mg/L, Table 1): A (90%≤A≤100%)
Control effect (cucumber downy mildew [2]; 10 mg/L, Table 3): A (90% ≤ A ≤ 100%)
Control effect (cucumber downy mildew [2]; 20 mg/L, Table 1): A (90%≤A≤100%)
bactericidal activity (cucumber downy mildew [2]; re-screening): excellent bactericidal activity

COC(CC(=O)N1CCC(c2nc(C3=NOC(c4c(F)cccc4F)C3)cs2)CC1)OCC(F)(F)F (centres unmarked) [II-18]
inhibitory activity compared with OXA (Phytophthora capsici): comparable to that of the control agent OXA
inhibition at 0.005 µg/mL (Phytophthora capsici): 90 to 100%
inhibition at 0.05 µg/mL (Phytophthora capsici): 90 to 100%
inhibition at 0.5 µg/mL (Phytophthora capsici): 90 to 100%
inhibition at 5 µg/mL (Phytophthora capsici): 90 to 100%
inhibitory activity compared with OXA (Phytophthora sojae): comparable to that of the control agent OXA
inhibition at 0.005 µg/mL (Phytophthora sojae): 90 to 100%
inhibition at 0.05 µg/mL (Phytophthora sojae): 90 to 100%
inhibition at 0.5 µg/mL (Phytophthora sojae): 90 to 100%
inhibition at 5 µg/mL (Phytophthora sojae): 90 to 100%
inhibitory activity compared with OXA (Phytophthora infestans): comparable to that of the control agent OXA
inhibition at 0.005 µg/mL (Phytophthora infestans): 90 to 100%
inhibition at 0.05 µg/mL (Phytophthora infestans): 90 to 100%
inhibition at 0.5 µg/mL (Phytophthora infestans): 90 to 100%
inhibition at 5 µg/mL (Phytophthora infestans): 90 to 100%
inhibition at 0.005 µg/mL (Phytophthora nicotianae): 75 to 90%
inhibition at 0.05 µg/mL (Phytophthora nicotianae): 90 to 100%
inhibition at 0.5 µg/mL (Phytophthora nicotianae): 90 to 100%
inhibition at 5 µg/mL (Phytophthora nicotianae): 90 to 100%
inhibitory activity compared with OXA (Phytophthora nicotianae): comparable to that of the control agent OXA
efficacy compared with OXA (cucumber downy mildew [2]; 0.005 mg/L): comparable to that of the control agent OXA
Control effect (cucumber downy mildew [2]; [6]): A (90%≤A≤100%)
Control effect (cucumber downy mildew [2]; [7]): A (90%≤A≤100%)
efficacy compared with dimethomorph and cyazofamid (cucumber downy mildew [2]; 0.078 mg/L): superior to that of dimethomorph and cyazofamid
efficacy compared with oxathiapiprolin (cucumber downy mildew [2]; 0.078 mg/L): equivalent to that of oxathiapiprolin at the same concentration
Control effect (cucumber downy mildew [2]; 0.078 mg/L, re-screening): ≥ 90%
Control effect (cucumber downy mildew [2]; [8]): A (90%≤A≤100%)
Control effect (cucumber downy mildew [2]; [9]): A (90%≤A≤100%)
Control effect (cucumber downy mildew [2]; 0.625 mg/L, Table 3): A (90% ≤ A ≤ 100%)
Control effect (cucumber downy mildew [2]; 1.25 mg/L, Table 1): A (90%≤A≤100%)
Control effect (cucumber downy mildew [2]; [10]): A (90%≤A≤100%)
Control effect (cucumber downy mildew [2]; 2.5 mg/L, Table 3): A (90% ≤ A ≤ 100%)
Control effect (cucumber downy mildew [2]; 5 mg/L, Table 1): A (90%≤A≤100%)
Control effect (cucumber downy mildew [2]; 10 mg/L, Table 3): A (90% ≤ A ≤ 100%)
Control effect (cucumber downy mildew [2]; 20 mg/L, Table 1): A (90%≤A≤100%)
bactericidal activity (cucumber downy mildew [2]; re-screening): excellent bactericidal activity

O=C(CC1OCCCO1)N1CCC(c2nc(C3=NOC(c4c(F)cccc4F)C3)cs2)CC1 (centres unmarked) [II-21]
Control effect (cucumber downy mildew [2]; 1.25 mg/L, Table 1): D (45%≤D<60%)
Control effect (cucumber downy mildew [2]; 5 mg/L, Table 1): B (75%≤B<90%)
Control effect (cucumber downy mildew [2]; 20 mg/L, Table 1): A (90%≤A≤100%)

O=C(CC1OCCO1)N1CCC(c2nc(C3=NOC(c4c(F)cccc4F)C3)cs2)CC1 (centres unmarked) [II-22]
Control effect (cucumber downy mildew [2]; 5 mg/L, Table 1): D (45%≤D<60%)
Control effect (cucumber downy mildew [2]; 20 mg/L, Table 1): A (90%≤A≤100%)

O=C(CC1OCCCCO1)N1CCC(c2nc(C3=NOC(c4c(F)cccc4F)C3)cs2)CC1 (centres unmarked) [II-28]
Control effect (cucumber downy mildew [2]; 5 mg/L, Table 1): C (60%≤C<75%)
Control effect (cucumber downy mildew [2]; 20 mg/L, Table 1): C (60%≤C<75%)

Cc1cc(C(F)(F)F)nn1CC(=O)N1CCC(c2nc(C3=NOC(c4c(F)cccc4F)C3)cs2)CC1 (centres unmarked) [OXA, oxathiapiprolin, reference compound]
inhibition at 0.005 µg/mL (Phytophthora capsici): 90 to 100%
inhibition at 0.05 µg/mL (Phytophthora capsici): 90 to 100%
inhibition at 0.5 µg/mL (Phytophthora capsici): 90 to 100%
inhibition at 5 µg/mL (Phytophthora capsici): 90 to 100%
inhibition at 0.005 µg/mL (Phytophthora sojae): 90 to 100%
inhibition at 0.05 µg/mL (Phytophthora sojae): 90 to 100%
inhibition at 0.5 µg/mL (Phytophthora sojae): 90 to 100%
inhibition at 5 µg/mL (Phytophthora sojae): 90 to 100%
inhibition at 0.005 µg/mL (Phytophthora infestans): 90 to 100%
inhibition at 0.05 µg/mL (Phytophthora infestans): 90 to 100%
inhibition at 0.5 µg/mL (Phytophthora infestans): 90 to 100%
inhibition at 5 µg/mL (Phytophthora infestans): 90 to 100%
inhibition at 0.005 µg/mL (Phytophthora nicotianae): 90 to 100%
inhibition at 0.05 µg/mL (Phytophthora nicotianae): 90 to 100%
inhibition at 0.5 µg/mL (Phytophthora nicotianae): 90 to 100%
inhibition at 5 µg/mL (Phytophthora nicotianae): 90 to 100%
Average control effect [1, 4]: 36.02%
Average disease index [1, 4]: 5.36
Average control effect [1, 5]: 74.87%
Average disease index [1, 5]: 8.59
Control effect (cucumber downy mildew [2]; [6]): A (90%≤A≤100%)
Control effect (cucumber downy mildew [2]; [7]): A (90%≤A≤100%)
Control effect (cucumber downy mildew [2]; [8]): A (90%≤A≤100%)
Control effect (cucumber downy mildew [2]; [9]): A (90%≤A≤100%)
Control effect (cucumber downy mildew [2]; 0.625 mg/L, Table 3): A (90% ≤ A ≤ 100%)
Control effect (cucumber downy mildew [2]; [10]): A (90%≤A≤100%)
Control effect (cucumber downy mildew [2]; 2.5 mg/L, Table 3): A (90% ≤ A ≤ 100%)
Control effect (cucumber downy mildew [2]; 10 mg/L, Table 3): A (90% ≤ A ≤ 100%)

CC(C)CCC(=O)N1CCC(c2nc(C3=NOC(c4c(F)cccc4F)C3)cs2)CC1 (centres unmarked) [comparative 1]
Control effect (cucumber downy mildew [3]; 0.625 mg/L): E (0% ≤ E < 45%)
Control effect (cucumber downy mildew [3]; 2.5 mg/L): B (75% ≤ B < 90%)
Control effect (cucumber downy mildew [3]; 10 mg/L): B (75% ≤ B < 90%)
